Results: ChEMBL document CHEMBL3638865, “Macrocycles as factor XIa inhibitors” (2014)

Biological target: Coagulation factor XI (Homo sapiens, UniProt P03951)
Assay: In Vitro Assay: The effectiveness of compounds of the present invention as inhibitors of the coagulation Factors XIa, VIIa, IXa, Xa, XIIa, plasma kallikrein or thrombin, can be determined using a relevant purified serine protease, respectively, and an appropriate synthetic substrate. The rate of hydrolysis of the chromogenic or fluorogenic substrate by the relevant serine protease was measured both in the absence and presence of compounds of the present invention. […] A decrease in the rate of absorbance or fluorescence change in the presence of inhibitor is indicative of enzyme inhibition. Factor XIa determinations were made in 50 mM HEPES buffer at pH 7.4.

Sequence of Coagulation factor XI (P03951 19-387 limits assumed): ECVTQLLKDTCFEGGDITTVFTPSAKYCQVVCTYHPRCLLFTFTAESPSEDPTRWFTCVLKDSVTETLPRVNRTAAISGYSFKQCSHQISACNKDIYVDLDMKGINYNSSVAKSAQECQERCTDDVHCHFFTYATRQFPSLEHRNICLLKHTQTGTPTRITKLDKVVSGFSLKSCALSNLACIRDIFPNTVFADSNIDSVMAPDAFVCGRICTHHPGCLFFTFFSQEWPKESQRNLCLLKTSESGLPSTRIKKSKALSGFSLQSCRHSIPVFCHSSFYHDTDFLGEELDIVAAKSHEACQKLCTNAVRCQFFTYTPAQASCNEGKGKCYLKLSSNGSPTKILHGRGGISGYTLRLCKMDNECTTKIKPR
Sequence of Coagulation factor XI (P03951 388-625 limits assumed): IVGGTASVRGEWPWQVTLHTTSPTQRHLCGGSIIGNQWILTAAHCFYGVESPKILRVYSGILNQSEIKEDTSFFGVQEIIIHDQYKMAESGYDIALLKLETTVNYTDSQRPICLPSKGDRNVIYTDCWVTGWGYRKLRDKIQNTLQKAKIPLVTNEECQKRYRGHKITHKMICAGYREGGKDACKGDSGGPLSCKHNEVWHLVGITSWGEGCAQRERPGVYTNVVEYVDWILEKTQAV

Ki: 8.12 µM
SMILES: COC(=O)Nc1ccc2c(c1)CNC(=O)c1ccc(cc1)C[C@H](NC(=O)/C=C/c1cc(Cl)ccc1-n1cnnn1)c1nc-2c(Cl)[nH]1
